# Measured values as given in ChEMBL document CHEMBL1134171, “Synthesis and biological activity of novel potent endothelin-converting enzyme-1 inhibitors” (Bioorg Med Chem Lett, 2001).
# Molecular target: T1, Endothelin-converting enzyme 1 (Homo sapiens, UniProt P42892)
# T1 sequence (P42892 whole entry): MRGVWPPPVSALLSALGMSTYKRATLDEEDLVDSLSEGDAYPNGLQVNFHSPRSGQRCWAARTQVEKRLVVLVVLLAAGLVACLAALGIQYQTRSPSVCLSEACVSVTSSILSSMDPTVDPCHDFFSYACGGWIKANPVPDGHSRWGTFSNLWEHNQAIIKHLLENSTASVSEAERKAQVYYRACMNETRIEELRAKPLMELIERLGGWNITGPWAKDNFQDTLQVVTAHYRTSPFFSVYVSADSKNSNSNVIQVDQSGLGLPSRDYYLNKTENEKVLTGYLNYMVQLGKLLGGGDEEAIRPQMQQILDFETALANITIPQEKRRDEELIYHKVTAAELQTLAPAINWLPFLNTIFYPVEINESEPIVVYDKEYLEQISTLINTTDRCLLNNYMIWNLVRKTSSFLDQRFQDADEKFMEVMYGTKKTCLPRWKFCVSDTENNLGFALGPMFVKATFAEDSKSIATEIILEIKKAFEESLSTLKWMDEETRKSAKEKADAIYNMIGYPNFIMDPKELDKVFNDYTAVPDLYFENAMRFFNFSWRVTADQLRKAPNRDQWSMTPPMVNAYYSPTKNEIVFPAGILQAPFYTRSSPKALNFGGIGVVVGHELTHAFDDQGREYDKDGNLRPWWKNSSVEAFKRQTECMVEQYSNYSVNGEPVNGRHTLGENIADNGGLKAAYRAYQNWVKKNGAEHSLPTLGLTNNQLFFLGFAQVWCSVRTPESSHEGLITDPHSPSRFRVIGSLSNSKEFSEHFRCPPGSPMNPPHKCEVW
# Test: In vitro inhibitory activity was tested against Endothelin converting enzyme 1
row,Structure (SMILES),IC50
1,CC(C)[C@H](S)C(=O)NC1(C(=O)NC(Cc2ccc(-c3ccccn3)cc2)C(=O)O)CCCC1 (stereo partly drawn),220 nM
2,CC(C)[C@H](S)C(=O)NC1(C(=O)NC(Cc2ccc(-c3cncnc3)cc2)C(=O)O)CCCC1 (stereo partly drawn),120 nM
3,CC(C)[C@H](S)C(=O)NC1(C(=O)NC(Cc2ccc(-c3cccnc3)cc2)C(=O)O)CCCC1 (stereo partly drawn),150 nM

# Second part, the molecule after the results:
row,IC50,Structure (SMILES)
1,990 nM,COc1cc(OC)cc(-c2ccc(CC(NC(=O)C3(NC(=O)[C@@H](S)C(C)C)CCCC3)C(=O)O)cc2)c1 (stereo partly drawn)
2,350 nM,COc1cccc(-c2ccc(CC(NC(=O)C3(NC(=O)[C@@H](S)C(C)C)CCCC3)C(=O)O)cc2)c1OC (stereo partly drawn)

# Molecular target: T2, Endothelin-converting enzyme 1 (Homo sapiens) (UniProt P42892)
# T2 sequence (whole entry): T1 sequence (P42892 whole entry)
# Test: In vitro inhibitory activity was tested against Endothelin converting enzyme 1 at a concentration of 1 uM
row,Structure (SMILES),inhibition
1,CC(C)[C@H](S)C(=O)NC1(C(=O)N[C@H](Cc2ccc(-c3ccccc3)cc2)C(=O)O)CCCC1,18%
2,CC(C)[C@H](S)C(=O)NC1(C(=O)N[C@@H](Cc2cccc(-c3ccccc3)c2)C(=O)O)CCCC1,39%
3,CC(C)[C@H](S)C(=O)NC1(C(=O)N[C@@H](Cc2ccc(-c3ccc(C(F)(F)F)cc3)cc2)C(=O)O)CCCC1,54%
4,CC(C)[C@H](S)C(=O)NC1(C(=O)N[C@@H](Cc2ccccc2-c2ccccc2)C(=O)O)CCCC1,0%
5,CC(C)[C@H](S)C(=O)NC1(C(=O)N[C@@H](Cc2ccccc2)C(=O)O)CCCC1,26%

# Second part, the molecule after the results:
row,inhibition,Structure (SMILES)
1,22%,CC(C)[C@H](S)C(=O)NC1(C(=O)NC(Cc2ccc(-c3ccncc3)cc2)C(=O)O)CCCC1 (stereo partly drawn)
2,77%,CC(C)[C@H](S)C(=O)NC1(C(=O)N[C@@H](Cc2ccc(-c3ccccc3)cc2)C(=O)O)CCCC1
3,49%,COc1ccc(-c2ccc(C[C@H](NC(=O)C3(NC(=O)[C@@H](S)C(C)C)CCCC3)C(=O)O)cc2)cc1
